# Values joined by “and” are separate entries in the source; they are usually repeats but may differ in a detail not shown here. Equal values may be shown once.
# How the values were obtained:
# [1] = test system: human primary hepatocytes; assay: Metabolic disposition of [^14C]-Compound 1 and [^14C]-2′-C-methyl guanosine in human primary hepatocytes (incubation medium, cellular extracts, nucleotide levels); type: in vitro ADME
# Method: Primary hepatocytes: Freshly isolated cells from animal and human liver were obtained in suspension on ice. Cells were pelleted by centrifugation at 70-75×g (rat) or 95-90×g (monkey and human) and resuspended at 0.8 million cells per mL of platting medium (William's E supplemented with 5% FBS, 0.5% penicillin-streptomycin, 1% L-glutamine, 4 μg/mL insulin and 1 μM dexamethasone). Multi-well collagen I-coated plates (rat tail collagen type I; 12- or 6-well) were then seeded by addition of 1 mL (12-well; 0.8 million cells/well) or 2 mL (6-well; 1.6 million cells/well) of cell suspension. The plates were gently shaken to evenly distribute the cells and placed in an incubator at 37° C. for approximately 4 to 6 hours to allow cells to attach. Once cells were attached, the platting medium was removed and replaced with hepatocyte culture medium (William's E supplemented with penicillin-streptomycin, 1% L-glutamine, 1% insulin-transferrin-selenium and 0.1 μM dexamethasone). Cells were left overnight in an incubator at 37° C. to acclimatize to culture and the medium.
# Hepatocyte incubations with radiolabeled Compound 1 and 2′-C-methyl guanosine, both labeled in the C-8 position of the guanine moiety, were conducted at a final volume of 2.0 mL hepatocyte culture medium/well ([…]). Culture medium from overnight incubation of cells was removed and replaced with fresh medium, pre-warmed to 37° C., containing 1 or 10 μM [^14C]-Compound 1 ([…]) or [^14C]-2′-C-methyl guanosine (127 DPM/μmol) from a stock solution in DMSO (final DMSO concentration was 0.1%) or 50% ethanol (final ethanol concentration was 0.2%). After 1, 4, 8 and 24 hours, 0.5-1.0 mL of incubation medium was removed and stored at −20° C. until analysis (described below). The remaining medium was discarded and cell monolayers were carefully washed two times with ice-cold PBS. Following the last wash, all PBS was carefully removed and 1.0 mL of extraction solution (ice-cold 70% methanol) added. Cells were scrapped off and suspended in the extraction solution, transferred to 2 mL polypropylene microfuge tubes and intracellular contents extracted overnight at −20° C.
# Preliminary identification of putative metabolites was conducted by comparing the retention time of observed metabolites in incubation medium and cellular extracts with retention times obtained with chemically synthesized standards using the chromatography conditions described below. Further identification of 2′-C-methyl guanosine nucleotides (mono-, di- and triphosphate) was carried out by incubating cellular extract samples with alkaline phosphatase (10 units for 60 min at 37° C.) and comparing the HPLC retention times of the resulting nucleosides with that of authentic 2′-C-methyl guanosine.
# Cellular extracts were prepared by centrifugation at 16,000 RCF using an Eppendorf microcentrifuge (Eppendorf, Model 5415D) for 10 min to remove cellular debris. An aliquot of 5-10 μL of the supernatant was added to 5 mL of EcoLite™ (MP, Irvine, Calif.) liquid scintillation cocktail and radioactivity measured by liquid scintillation counting (LSC) using a Beckman Coulter LS6500 multipurpose liquid scintillation counter (Beckman Instruments, Fullerton, Calif.). The remaining sample was then dried using a Labconco refrigerated centrivap concentrator (Labconco, Kansas City, Mo.). Dry extracts were reconstituted in 120 μL of HPLC-grade water and centrifuged at 16,000 RCF using an Eppendorf microcentrifuge for 10 min. Prior to HPLC analysis (described below), radioactivity of the concentrated extracts was measured by LSC using 5 μL aliquots. Extraction recovery was then determined by comparing total radioactivity in extracts before and after drying. The remaining extract was then analyzed by HPLC with online radioactivity detection using a Flow Scintillation Analyzer Radiomatic™ 515TR. Radioactivity in the separated components was quantified by integrating the peaks using Flo-One™ Software (Perkin Elmer Life Sciences). […]
# [2] = test system: monkey primary hepatocytes; assay: Metabolic disposition of [^14C]-Compound 1 and [^14C]-2′-C-methyl guanosine in monkey primary hepatocytes (incubation medium, cellular extracts, nucleotide levels); type: in vitro ADME, Cynomolgus monkey; conditions: for decrease in Compound 1 medium levels: monkey hepatocytes; for decrease in Compound 1 medium levels / % Residual [^14C]-Compound 1 in incubation medium: 10 μM
# How it was run: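 Rat, monkey or human primary hepatocytes on collagen I plates (1.6 million cells/mL) were incubated at 37° C with 1 or 10 μM C-8 [^14C]-labelled compound or 2′-C-methyl guanosine for 1, 4, 8 and 24 hours. Medium and 70% methanol cell extracts were analysed by LSC and radio-HPLC. Nucleotides were identified by alkaline phosphatase treatment and retention-time matching to standards.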
# [3] = human hepatocytes (Hu759, Hu775), 10 μM [^14C]-Compound 1, 1 h
# [4] = human hepatocytes (Hu759, Hu775), 10 μM [^14C]-Compound 1, 24 h
# [5] = human hepatocytes (Hu775), 1 μM [^14C]-Compound 1, 1 h
# [6] = human hepatocytes (Hu775), 1 μM [^14C]-Compound 1, 8 h
# [7] = human hepatocytes (Hu775), 1 μM [^14C]-Compound 1, 24 h
# [8] = monkey hepatocytes (Cy230, Cy234), 10 μM [^14C]-Compound 1, 8 h
# [9] = monkey hepatocytes (Cy230, Cy234), 10 μM [^14C]-Compound 1, 24 h
# [10] = monkey hepatocytes (Cy234), 10 μM [^14C]-Compound 1, 4 h
smiles,measurement,setting,value
"C[C@@]1(O)[C@H](O)[C@@H](COP(=O)(O)NCc2ccccc2)O[C@H]1n1cnc2c(=O)[nH]c(N)nc21 [Compound 2, [(2R)-2-methyl-β-D-ribofuranosyl]guanine-N-benzylaminyl-5′-monophosphate]",metabolites observed in cellular extracts (% of total radioactivity),[1]; [3],6.50% and 2.30%
same,metabolites observed in cellular extracts (% of total radioactivity),"[1]; human hepatocytes (Hu759, Hu775), 10 μM [^14C]-Compound 1, 8 h",BLD
same,metabolites observed in cellular extracts (% of total radioactivity),[1]; [4],BLD
same,metabolites observed in medium (% of total radioactivity),"[1]; human hepatocytes (Hu775), 1 μM [^14C]-Compound 1, 0 h",2.22%
same,metabolites observed in cellular extracts (% of total radioactivity),[1]; [5],4.94%
same,metabolites observed in medium (% of total radioactivity),[1]; [5],BLD
same,metabolites observed in cellular extracts (% of total radioactivity),[1]; [6],BLD
same,metabolites observed in medium (% of total radioactivity),[1]; [6],2.27%
same,metabolites observed in cellular extracts (% of total radioactivity),[1]; [7],BLD
same,metabolites observed in medium (% of total radioactivity),[1]; [7],1.7% and 1.72%
same,metabolites observed in medium (% of total radioactivity),"[1]; human hepatocytes (lots Hu759, Hu775), 10 μM [^14C]-Compound 1, 0 h",2.7% and 1.1%
same,metabolites observed in medium (% of total radioactivity),"[1]; human hepatocytes (lots Hu759, Hu775), 10 μM [^14C]-Compound 1, 4 h",1.8% and 0.8%
same,metabolites observed in medium (% of total radioactivity),"[1]; human hepatocytes (lots Hu759, Hu775), 10 μM [^14C]-Compound 1, 8 h",2.6% and 0.6%
same,metabolites observed in medium (% of total radioactivity),"[1]; human hepatocytes (lots Hu759, Hu775), 10 μM [^14C]-Compound 1, 24 h",2.7% and 0.7%
same,metabolites observed in cellular extracts (% of total radioactivity),"[2]; monkey hepatocytes (Cy230, Cy234), 10 μM [^14C]-Compound 1, 1 h",3.20% and 7.96%
same,metabolites observed in cellular extracts (% of total radioactivity),[2]; [8],BLD^c and BLD
same,metabolites observed in cellular extracts (% of total radioactivity),[2]; [9],BLD
same,metabolites observed in cellular extracts (% of total radioactivity),[2]; [10],1.25%
same,metabolites observed in medium (% of total radioactivity),"[2]; monkey hepatocytes (lot Cy234), 10 μM [^14C]-Compound 1, 4 h",1.1%
same,metabolites observed in medium (% of total radioactivity),"[2]; monkey hepatocytes (lots Cy230, Cy234), 10 μM [^14C]-Compound 1, 0 h",1.0% and 6.2%
same,metabolites observed in medium (% of total radioactivity),"[2]; monkey hepatocytes (lots Cy230, Cy234), 10 μM [^14C]-Compound 1, 1 h",1.9% and 0.6%
same,metabolites observed in medium (% of total radioactivity),"[2]; monkey hepatocytes (lots Cy230, Cy234), 10 μM [^14C]-Compound 1, 8 h",8.5% and 1.8%
same,metabolites observed in medium (% of total radioactivity),"[2]; monkey hepatocytes (lots Cy230, Cy234), 10 μM [^14C]-Compound 1, 24 h",7.0% and 8.2%
"CC(C)(CO)C(=O)SCCOP(=O)(NCc1ccccc1)OC[C@H]1O[C@@H](n2cnc3c(=O)[nH]c(N)nc32)[C@](C)(O)[C@@H]1O (mixture of isomers) [Compound 1, 3-hydroxy-2,2-dimethyl-thiopropionic acid S-(2-{[(2R,3R,4R,5R)-5-(2-amino-6-oxo-1,6-dihydro-purin-9-yl)-3,4-dihydroxy-4-methyl-tetrahydro-furan-2-ylmethoxy]-benzylamino-phosphoryloxy}-ethyl) ester]",metabolites observed in cellular extracts (% of total radioactivity),[1]; [3],31.1% and 23.9%
same,metabolites observed in cellular extracts (% of total radioactivity),"[1]; human hepatocytes (Hu759, Hu775), 10 μM [^14C]-Compound 1, 4 h",8.48% and 6.96%
same,metabolites observed in cellular extracts (% of total radioactivity),[1]; [4],1.38% and 1.59%
same,metabolites observed in cellular extracts (% of total radioactivity),[1]; [5],19.9%
same,metabolites observed in cellular extracts (% of total radioactivity),[1]; [6],4.07%
same,metabolites observed in cellular extracts (% of total radioactivity),[1]; [7],2.78%
same,decrease in Compound 1 medium levels,"[1]; human hepatocytes, 10 μM, 24 hours",38%
same,% Residual [^14C]-Compound 1 in incubation medium,"[1]; human primary hepatocytes (n=1), 1 μM, 0 h",97%
same,% Residual [^14C]-Compound 1 in incubation medium,"[1]; human primary hepatocytes (n=1), 1 μM, 1 h",100%
same,% Residual [^14C]-Compound 1 in incubation medium,"[1]; human primary hepatocytes (n=1), 1 μM, 8 h",78%
same,% Residual [^14C]-Compound 1 in incubation medium,"[1]; human primary hepatocytes (n=1), 1 μM, 24 h",51%
same,% Residual [^14C]-Compound 1 in incubation medium,"[1]; human primary hepatocytes (n=2), 10 μM, 0 h",97% and 98%
same,% Residual [^14C]-Compound 1 in incubation medium,"[1]; human primary hepatocytes (n=2), 10 μM, 1 h",94% and 97%
same,% Residual [^14C]-Compound 1 in incubation medium,"[1]; human primary hepatocytes (n=2), 10 μM, 4 h",91%
same,% Residual [^14C]-Compound 1 in incubation medium,"[1]; human primary hepatocytes (n=2), 10 μM, 8 h",84% and 79%
same,% Residual [^14C]-Compound 1 in incubation medium,"[1]; human primary hepatocytes (n=2), 10 μM, 24 h",63% and 60%
same,metabolites observed in cellular extracts (% of total radioactivity),[2]; [8],BLD
same,metabolites observed in cellular extracts (% of total radioactivity),[2]; [9],undetected and BLD
same,metabolites observed in cellular extracts (% of total radioactivity),[2]; [10],3.03%
same,decrease in Compound 1 medium levels,[2]; 8 hours,about 40%
same,decrease in Compound 1 medium levels,[2]; 24 hours,77%
same,% Residual [^14C]-Compound 1 in incubation medium,"[2]; monkey primary hepatocytes (n=2), 0 h",97% and 91%
same,% Residual [^14C]-Compound 1 in incubation medium,"[2]; monkey primary hepatocytes (n=2), 1 h",95% and 67%
same,% Residual [^14C]-Compound 1 in incubation medium,"[2]; monkey primary hepatocytes (n=2), 8 h",63% and 61%
same,% Residual [^14C]-Compound 1 in incubation medium,"[2]; monkey primary hepatocytes (n=2), 24 h",16% and 31%
same,% Residual [^14C]-Compound 1 in incubation medium,"[2]; monkey primary hepatocytes, 4 h",66%
